Target: T1, CDK2/cyclinA (Homo sapiens, UniProt P24941)
T1 construct: C-terminal 6His-tagged human full length cdk2 (MW=35 kDa); 6His (C); made in house; host or cells: Sf21 insect cells (baculovirus)
Assay: CDK2 kinase assay (33P-ATP, Histone H1 substrate)
Type: biochemical
Conditions: 1 μM ATP, 5 μM Histon H1, 2 hours at room temperature
Excerpt: CDK2/cyclinA (Accession number for CDK2; EMBL M68520, for cyclin A; EMBL X51688): C-terminal 6His-tagged human full length cdk2 (MW=35 kDa), and N-terminal GST-tagged human full length cyclin A (MW=75 kDa) were expressed individually with baculovirus system in Sf21 insect cells. Recombinant cdk2 protein was purified with Ni2+/NTA agarose and then activated using CAK and repurified by Q Sepharose and Ni2+/NTA agarose. Recombinant cyclin A was purified using glutathione-agarose. They were then mixed in vitro to form protein complex. Recombinant protein complex was measured to be 67% in purity with SDS-PAGE and Coomassie blue staining. Specific activity of purified enzyme was measured to be 158 U/mg, where one unit of cdk2/cyclinA activity is defined as 1 nmol phosphate incorporated into 0.1 mg/ml histone H1 per minute at 30° C. with a final ATP concentration of […]. Enzyme was stored at a concentration of 0.1 mg/ml in 50 mM Tris/HCl pH7.5, 150 mM NaCl, 0.1 mM EGTA, 0.03% Brij-35, 270 mM sucrose, 1 mM benzamidine, 0.2 mM PMSF, 0.1% 2-mercaptoethanol. Frozen solution.
Histon H1 (Substrate for CDK2): Histone H1 (Sigma cat#H4524), was purified as a lysine rich fraction from calf thymus with 93% purity (MW=21.5 kDa). Purified protein was stored at a concentration of 20 mg/ml=930 μM in distilled water.
[…] (0.5 nmol) and 5 μM Histon H1 were mixed in the reaction buffer (20 mM HEPES (pH 7.5), 10 mM MgCl2, 1 mM EGTA, 0.02% Brij 35, 0.02 mg/ml BSA, 0.1 mM Na3VO4, 2 mM DTT) with final concentration of 1 μM ATP and 1% DMSO. The reaction was incubated for 2 hours at room temperature and conversion rate of ATP is about 4.5%. An equal volume of 25% TCA was added to stop the reaction and precipitate the labeled peptides. Precipitated proteins were trapped onto glass fiber B filterplates and excess […] p33 ATP was washed off. The plates were allowed to air-dry prior to the addition of 30 uL/well of Packard Microscint 20. The amount of incorporated isotope was measured using a Perkin Elmer TopCount plate reader. Different concentrations of compounds were added to reaction to assess the activity of compounds to inhibit […]. IC50 was calculated using Prism software with sigmoidal dose-response curve fitting.
The following TABLE B lists compounds representative of the invention and their activity in the CDK2 assay. In this assay, the following grading was used: I≧10 μM, 10 μM>II>1 μM, 1 μM>III>0.1 μM, and IV≦0.1 μM for IC50.

| Structure (SMILES) | IC50 [nM] |
| --- | --- |
| CONC(=O)CCCCCCC(=O)Nc1ncc(SCc2ncc(C(C)(C)C)o2)s1 [Compound 1, N^1-(5-((5-tert-butyloxazol-2-yl)methylthio)thiazol-2-yl)-N^8-methoxyoctanediamide] | ≤ 100 |
| CC(C)(C)c1cnc(CSc2cnc(NC(=O)CCCCCCC(=O)NOC3CCCCO3)s2)o1 (stereo not shown) [Compound 3, N^1-(5-((5-tert-butyloxazol-2-yl)methylthio)thiazol-2-yl)-N^8-(tetrahydro-2H-pyran-2-yloxy)octanediamide] | ≤ 100 |
| CC(C)(C)c1cnc(CSc2cnc(NC(=O)C(=O)Nc3ccccc3)s2)o1 [Compound 11] | 100 to 1000 |
| CC(C)(C)c1cnc(CSc2cnc(NC(=O)CCCC(=O)Nc3ccccc3N)s2)o1 [Compound 15, N1-(2-aminophenyl)-N5-(5-((5-tert-butyloxazol-2-yl)methylthio)thiazol-2-yl)glutaramide] | ≤ 100 |
| CC(=O)Nc1ccccc1NC(=O)CCCCCCC(=O)Nc1ncc(SCc2ncc(C(C)(C)C)o2)s1 [Compound 19, N^1-(2-acetamidophenyl)-N^8-(5-((5-tert-butyloxazol-2-yl)methylthio)thiazol-2-yl)octanediamide] | ≤ 100 |
| CC(Sc1cnc(NC(=O)CCCCCCC(=O)Nc2ccccc2N)s1)c1ncc(C(C)(C)C)o1 (stereo not shown) [Compound 20, N^1-(2-aminophenyl)-N^8-(5-(1-(5-tert-butyloxazol-2-yl)ethylthio)thiazol-2-yl)octanediamide] | ≤ 100 |
| CC(C)(C)c1cnc(CSc2cnc(NC(=O)CCCCCCC(=O)Nc3ccc(N)cc3)s2)o1 [Compound 21, N^1-(4-aminophenyl)-N^8-(5-((5-tert-butyloxazol-2-yl)methylthio)thiazol-2-yl)octanediamide] | ≤ 100 |
| CC(C)(C)c1cnc(CSc2cnc(NC(=O)CCCCCCC(=O)Nc3ccc(F)cc3N)s2)o1 [Compound 23, N^1-(2-amino-4-fluorophenyl)-N^8-(5-((5-tert-butyloxa-zol-2-yl)methylthio)thiazol-2-yl)octanediamide] | ≤ 100 |
| Cc1ccc(NC(=O)CCCCCCC(=O)Nc2ncc(SCc3ncc(C(C)(C)C)o3)s2)c(N)c1 [Compound 26, N^1-(2-amino-4-methylphenyl)-N^8-(5-((5-tert-butyloxazol-2-yl)methylthio)thiazol-2-yl)octanediamide] | ≤ 100 |
| CC(C)(C)c1cnc(CSc2cnc(NC(=O)CCCCCCC(=O)Nc3ccccn3)s2)o1 [Compound 28, N^1-(5-((5-tert-butyloxazol-2-yl)methylthio)thiazol-2-yl)-N^8-(pyridin-2-yl)octanediamide] | ≤ 100 |
| CN(O)C(=O)CCCOc1ccc(CC(=O)Nc2ncc(SCc3ncc(C(C)(C)C)o3)s2)cc1 [Compound 32, 4-(4-(2-(5-((5-tert-butyloxazol-2-yl)methylthio)thiazol-2-ylamino)-2-oxoethyl)phenoxy)-N-hydroxy-N-methylbutanamide] | ≤ 100 |
| CC(C)(C)c1cnc(CSc2cnc(NC(=O)Cc3ccc(OCCC(=O)Nc4ccccc4N)cc3)s2)o1 [Compound 33] | ≤ 100 |
| CONC(=O)/C=C/c1ccc(C(=O)Nc2ncc(SCc3ncc(C(C)(C)C)o3)s2)cc1 [Compound 38, (E)-N-(5-((5-tert-butyloxazol-2-yl)methylthio)thiazol-2-yl)-4-(3-(methoxyamino)-3-oxoprop-1-enyl)benzamide] | ≤ 100 |

The next lines start with the values.

| IC50 [nM] | Structure (SMILES) |
| --- | --- |
| ≤ 100 | CC(C)(C)c1cnc(CSc2cnc(NC(=O)CCCCCCC(=O)NOCc3ccccc3)s2)o1 [Compound 2, N^1-(benzyloxy)-N^8-(5-((5-tert-butyloxazol-2-yl)methylthio)thiazol-2-yl)octanediamide] |
| ≤ 100 | CN(O)C(=O)CCCCCCC(=O)Nc1ncc(SCc2ncc(C(C)(C)C)o2)s1 [Compound 4, N^1-(5-((5-tert-butyloxazol-2-yl)methylthio)thiazol-2-yl)-N^8-hydroxy-N^8-methyloctanediamide] |
| ≤ 100 | CC(C)(C)c1cnc(CSc2cnc(NC(=O)CCCCCCC(=O)N(O)Cc3ccccc3)s2)o1 [Compound 6, N^1-benzyl-N^8-(5-((5-tert-butyloxazol-2-yl)methylthio)-thiazol-2-yl)-N^1-hydroxyoctanediamide] |
| ≤ 100 | CC(C)(C)c1cnc(CSc2cnc(NC(=O)CCCCCCC(=O)NOCCO)s2)o1 [Compound 7, N^1-(5-((5-tert-butyloxazol-2-yl)methylthio)thiazol-2-yl)-N^8-(2-hydroxyethoxy)octanediamide] |
| ≤ 100 | CC(C)(C)c1cnc(CSc2cnc(NC(=O)CCCCCCC(=O)Nc3ccc(CCO)cc3)s2)o1 [Compound 8, N^1-(5-((5-tert-butyloxazol-2-yl)methylthio)thiazol-2-yl)-N^8-(4-(2-hydroxyethyl)phenyl)octanediamide] |
| ≤ 100 | CC(C)(C)c1cnc(CSc2cnc(NC(=O)CCCCCCC(=O)Nc3ccccc3)s2)o1 [Compound 9, N^1-(5-((5-tert-butyloxazol-2-yl)methylthio)thiazol-2-yl)-N^8-phenyloctanediamide] |
| ≤ 100 | CC(C)(C)c1cnc(CSc2cnc(NC(=O)CCCCCCC(=O)Nc3ccc(O)cc3)s2)o1 [Compound 10, N^1-(5-((5-tert-butyloxazol-2-yl)methylthio)thiazol-2-yl)-N^8-(4-hydroxyphenyl)octanediamide] |
| ≤ 100 | CC(C)(C)c1cnc(CSc2cnc(NC(=O)CC(=O)Nc3ccccc3N)s2)o1 [Compound 13, N1-(2-aminophenyl)-N3-(5-((5-tert-butyloxazol-2-yl)methylthio)thiazol-2-yl)malonamide] |
| ≤ 100 | CC(C)(C)c1cnc(CSc2cnc(NC(=O)CCCCC(=O)Nc3ccccc3N)s2)o1 [Compound 16, N1-(2-aminophenyl)-N6-(5-((5-tert-butyloxazol-2-yl)methylthio)thiazol-2-yl)adipamide] |
| ≤ 100 | CC(C)(C)c1cnc(CSc2cnc(NC(=O)CCCCCC(=O)Nc3ccccc3N)s2)o1 [Compound 17, N1-(2-aminophenyl)-N7-(5-((5-tert-butyloxazol-2-yl)methylthio)thiazol-2-yl)heptanediamide] |
| ≤ 100 | CC(C)(C)c1cnc(CSc2cnc(NC(=O)CCCCCCC(=O)Nc3cccc(N)c3)s2)o1 [Compound 22, N^1-(3-aminophenyl)-N^8-(5-((5-tert-butyloxazol-2-yl)methylthio)thiazol-2-yl)octanediamide] |
| ≤ 100 | CC(C)(C)c1cnc(CSc2cnc(NC(=O)Nc3ccccc3N)s2)o1 [Compound 27, 1-(2-Aminophenyl)-3-(5-((5-tert-butyloxazol-2-yl)methyl-thio)thiazol-2-yl)urea] |
| ≤ 100 | CC(C)(C)c1cnc(CSc2cnc(NC(=O)CCCCCCC(=O)Nc3cccnc3)s2)o1 [Compound 29, N^1-(5-((5-tert-butyloxazol-2-yl)methylthio)thiazol-2-yl)-N^8-(pyridin-3-yl)octanediamide] |
| ≤ 100 | CC(C)(C)c1cnc(CSc2cnc(NC(=O)CCCCCCC(=O)Nc3ccncc3)s2)o1 [Compound 30, N^1-(5-((5-tert-butyloxazol-2-yl)methylthio)thiazol-2-yl)-N^8-(pyridin-4-yl)octanediamide] |
| ≤ 100 | CONC(=O)CCCOc1ccc(CC(=O)Nc2ncc(SCc3ncc(C(C)(C)C)o3)s2)cc1 [Compound 31, 4-(4-(2-(5-((5-tert-butyloxazol-2-yl)methylthio)thiazol-2-ylamino)-2-oxoethyl)phenoxy)-N-methoxybutanamide] |
| ≤ 100 | CC(C)(C)c1cnc(CSc2cnc(NC(=O)Cc3ccc(OCCCC(=O)Nc4ccccc4N)cc3)s2)o1 [Compound 34, N-(2-aminophenyl)-4-(4-(2-(5-((5-tert-butyloxazol-2-yl)methylthio)thiazol-2-ylamino)-2-oxoethyl)phenoxy)butanamide] |
| ≤ 100 | CC(C)(C)c1cnc(CSc2cnc(NC(=O)Cc3ccc(OCCCCC(=O)Nc4ccccc4N)cc3)s2)o1 [Compound 35, N-(2-aminophenyl)-5-(4-(2-(5-((5-tert-butyloxazol-2-yl)methylthio)thiazol-2-ylamino)-2-oxoethyl)phenoxy)pentanamide] |
| ≤ 100 | CC(C)(C)c1cnc(CSc2cnc(NC(=O)Cc3ccc(OCCCCCC(=O)Nc4ccccc4N)cc3)s2)o1 [Compound 36, N-(2-aminophenyl)-6-(4-(2-(5-((5-tert-butyloxazol-2-yl)methylthio)thiazol-2-ylamino)-2-oxoethyl)phenoxy)hexanamide] |

Source: patent US8691820B2, “CDK inhibitors” (Curis, Inc., priority 2008, dated 2014)
